Assay [1] concerns CD33^+ MDSC. The experiment in a line: qRT-PCR gene expression in treated CD33+ MDSC. The following applies: treated vs untreated CD33+ MDSC, mRNA. It is filed as cell-based, human. A general note: Quantitative PCR measures a nucleic acid by following its amplification.
The subject of assay [2] is CD11b^+ MDSC. The assay is described as follows: qRT-PCR gene expression in treated CD11b+ MDSC. The following applies: treated vs untreated CD11b+ MDSC, mRNA. The class given is cell-based, human.
Assay [3] relates to CD33^+ MDSC. The assay is described as follows: Reversal of suppressive function of tumor cell line-induced CD33+ MDSC by drugs. It is filed as cell-based, human. Particulars: drug-treated CD33+ MDSC.
The subject of assay [4] is CD11b^+ MDSC. The assay is described as follows: Functional inhibition of tumor cell line-induced CD11b+ MDSC by drugs. Particulars: drug-treated CD11b+ MDSC.
The test system of assay [5] is CD33^+ MDSC. The assay is described as follows: Suppression Assay in presence or absence of specific inhibitors of MDSC suppressive mechanisms. It is filed as cell-based, human. The following applies: tumor cell line-induced CD33+ MDSC, CD3/CD28-stimulated autologous T cells, with inhibitor. The protocol: Further characterization of tumor-induced canonical CD33^+ MDSC subset by analysis of the expression of putative MDSC suppression genes was performed. For these studies, expression of putative suppression genes was measured in tumor cell line-induced MDSC, including those induced by SCCL-MT1 HNSCC cell line and those induced by 4-998 osteogenic sarcoma, DU 145 prostate carcinoma, CAKI-1 renal cell carcinoma, SK-OV-3 ovarian carcinoma, and SW 608 and SW 732 colorectal adenocarcinoma cell lines (FIG. 6A), and compared to expression levels in normal, non-suppressive CD33^+ myeloid cells from medium only cultures. […] To determine the dominant mechanism of T cell suppression by this canonical CD33^+ MDSC subset, suppression assays were repeated in the presence or absence of specific inhibitors of ARG-1 (nor-NOHA), iNOS (L-NMMA), NOX2 (apocynin), VEGF (neutralizing antibody Avastin), or TGFβ1 (SB431542 or neutralizing antibody 1D11).

“Also recorded” adds a separate entry of the source.

In the case of lipopolysaccharide, in the assay with CD33^+ MDSC [1], the ARG-1 expression result is recorded as “increased expression”, the C/EBPβ expression entry is given as “further up-regulation”, the HIF1α expression entry is reported as “further up-regulation” and the “NOX2-component NCF1 expression” value is reported as “increased expression”. In the assay on CD33^+ MDSC [1], the STAT3 expression result was “further up-regulation” and the iNOS expression result is “increased expression”. In the assay with CD11b^+ MDSC [2], the ARG-1 expression result is on record as “increased expression”, the C/EBPβ expression entry was “further up-regulation”, the HIF1α expression entry is on record as “further up-regulation” and the “NOX2-component NCF1 expression” value was “increased expression”. Besides, in the assay with CD11b^+ MDSC [2], the STAT3 expression entry is “further up-regulation” and the iNOS expression entry is “increased expression”.

As to `CC1=C(/C=C/C(C)=C/C=C/C(C)=C/C(=O)O)C(C)(C)CCC1` [ATRA], the “CD33+ MDSC suppressive function” value in the assay on CD33^+ MDSC [3] is recorded as “Inhibition; also recorded: Reversal”. For the same compound, in the assay on CD33^+ MDSC [1], the HIF1α expression result is given as “decreased” and the STAT3 expression result was “decreased”. In the assay on CD11b^+ MDSC [2], the C/EBPβ expression entry is on record as “decreased”, the HIF1α expression result is on record as “no change” and the STAT3 expression entry is “no change”. Also, the “CD11b+ MDSC suppressive function” value in the assay on CD11b^+ MDSC [4] is “Functional inhibition”.

On to `COc1cc(C(C)=O)ccc1O` [apocynin], for which, in the assay with CD33^+ MDSC [5], the “suppression of T cell proliferation by CD33+ MDSC” value is given as “statistically significant decreases in suppression”.

Consider `N=C(NO)NCC[C@H](N)C(=O)O` [nor-NOHA], for which, in the assay with CD33^+ MDSC [5], the “suppression of T cell proliferation by CD33+ MDSC” value is “statistically significant decreases in suppression”.

The values are drawn from patent US9746480B2, “Human myeloid derived suppressor cell cancer markers” (University of Southern California, priority 2011, dated 2017).
